biological target: T1, MAT2A homodimer (Homo sapiens, UniProt P31153); assay: Biochemical assay: inhibition of MAT2A (phosphate release, PiColorLock Gold); details: MAT2A IC50 score; read-out: Enzyme Inhibition (Example 275)
T1 construct: inferred from Ni sepharose purification and imidazole elution; made in house; host or cells: Sf9 insect cells, recombinant baculovirus (Bac to Bac, pFASTBAC1)
Procedure: Mat2A protein was expressed by recombinant baculovirus in SF9 infected cells using the Bac to Bac system cloned into the pFASTBAC1 vector (Invitrogen, Carlsbad, Calif.). Recombinant MAT2A was isolated from the cell lysate of 150 g of infected cells using HP Ni sepharose column chromatography. Recombinant MAT2A homodimer was eluted with 250 and 500 mM imidazole, and fractions containing MAT2A were identified by sodium dodecyl sulfate polyacrylamide gel electrophoresis and pooled.
For determination of the inhibitory potency of compounds against the MAT2A homodimer, protein was diluted to […] in assay buffer (50 mM Tris, pH 8.0, 50 mM KCl, 15 mM MgCl2, 0.3 mM EDTA, 0.005% [w/v] bovine serum albumin [BSA]). Test compound was prepared in 100% dimethyl sulfoxide (DMSO) at 50× the desired final concentration. […] of compound dilution was added to 40 μL of enzyme dilution and the mixture was allowed to equilibrate for 60 minutes at 25° C. The enzymatic assay was initiated by the addition of 10 μL of substrate mix (500 μM ATP, pH 7.0, 400 μM L-methionine in 1× assay buffer), and the mixture was incubated for a further 60 minutes at 25° C. The reaction was halted and the liberated phosphate released by the enzyme in stoichiometric amounts by the production of S-adenosyl methionine (SAM) was measured using the PiColorLock Gold kit (Innova Biosciences, UK). Absolute product amounts were determined by comparison to a standard curve of potassium phosphate buffer, pH 8.0.

T1 sequence (P31153 whole entry): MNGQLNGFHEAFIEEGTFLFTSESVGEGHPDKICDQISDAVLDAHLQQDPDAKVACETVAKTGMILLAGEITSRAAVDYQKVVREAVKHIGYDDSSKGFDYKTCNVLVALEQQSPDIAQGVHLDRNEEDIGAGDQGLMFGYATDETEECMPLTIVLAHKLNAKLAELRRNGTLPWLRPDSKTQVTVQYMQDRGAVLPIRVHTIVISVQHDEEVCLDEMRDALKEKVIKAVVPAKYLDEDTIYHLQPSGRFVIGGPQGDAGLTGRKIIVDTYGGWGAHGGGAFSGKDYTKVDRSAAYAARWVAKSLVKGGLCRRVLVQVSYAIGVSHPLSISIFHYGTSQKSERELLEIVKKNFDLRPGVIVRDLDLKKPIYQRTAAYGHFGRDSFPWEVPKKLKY

Row | SMILES | IC50 [µM]
1 | COc1ccc(-c2c(=O)n(-c3ccncc3)cc3cnc(NCC(F)(F)F)nc23)cc1 [Example 176, 8-(4-methoxyphenyl)-6-(pyridin-4-yl)-2-((2,2,2-trifluoroethyl)amino)pyrido[4,3-d]pyrimidin-7(6H)-one] | 0.1 to 1
2 | COc1ccc(N2Cc3cnc(NCC4CC4)nc3C3(CCN(C4CCCCC4)C3)C2=O)cc1 (centres unmarked) [Example 104, 1′-cyclohexyl-2-((cyclopropylmethyl)amino)-6-(4-methoxyphenyl)-5H-spiro[pyrido[4,3-d]pyrimidine-8,3′-pyrrolidin]-7(6H)-one] | 1 to 10
3 | COc1ccc(-n2cc3cnc(NCC(F)(F)F)nc3c(-c3ccc(C4CCC4)cc3)c2=O)cc1 [Example 199, 8-(4-cyclobutylphenyl)-6-(4-methoxyphenyl)-2-((2,2,2-trifluoroethyl)amino)pyrido[4,3-d]pyrimidin-7(6H)-one] | 1 to 10
4 | O=c1c(-c2ccc(Cl)cc2)c2nc(NCC(F)(F)F)ncc2cn1-c1ccn2nccc2c1 [Example 130, 8-(4-chlorophenyl)-6-(pyrazolo[1,5-a]pyridin-5-yl)-2-(2,2,2-trifluoroethylamino)pyrido[4,3-d]pyrimidin-7(6H)-one] | < 0.1
5 | CCNc1ncc2c(n1)C1(CCN(Cc3cc[nH]n3)C1)C(=O)N(c1ccc(OC)cc1)C2 (centres unmarked) [Example 111, 1′-((1H-pyrazol-3-yl)methyl)-2-(ethylamino)-6-(4-methoxyphenyl)-5H-spiro[pyrido[4,3-d]pyrimidine-8,3′-pyrrolidin]-7(6H)-one] | 1 to 10
6 | COCc1ccc2cn(-c3ccc4nn(C)cc4c3)c(=O)c(-c3ccc(Cl)cc3)c2n1 [Example 136-A, 8-(4-chlorophenyl)-2-(methoxymethyl)-6-(2-methyl-2H-indazol-5-yl)-1,6-naphthyridin-7(6H)-one] | < 0.1
7 | O=c1c(-c2ccc(C3CC3)cc2)c2nc(OCC(F)(F)F)ncc2cn1-c1ccc2ncccc2c1 [Example 267, 8-(4-cyclopropylphenyl)-6-(quinolin-6-yl)-2-(2,2,2-trifluoroethoxy)pyrido[4,3-d]pyrimidin-7(6H)-one] | < 0.1
8 | COc1ccc(-c2c(=O)n(-c3cn[nH]c3)cc3cnc(NCC(F)(F)F)nc23)cc1 [Example 208, 8-(4-methoxyphenyl)-6-(H-pyrazol-4-yl)-2-((2,2,2-trifluoroethyl)amino)pyrido[4,3-d]pyrimidin-7(6H)-one] | < 0.1
9 | COc1ccc(N2Cc3cnc(NCC4CC4)nc3C3(CCN(Cc4cn[nH]c4)C3)C2=O)cc1 (centres unmarked) [Example 102, 1′-((1H-pyrazol-4-yl)methyl)-2-((cyclopropylmethyl)amino)-6-(4-methoxyphenyl)-5H-spiro[pyrido[4,3-d]pyrimidine-8,3′-pyrrolidin]-7(6H)-one] | 1 to 10
10 | COC(=O)C1CC(N2CCC3(C2)C(=O)N(c2ccc(OC)cc2)Cc2cnc(NCC4CC4)nc23)C1 (centres unmarked) [Example 105, methyl 3-(2-((cyclopropylmethyl)amino)-6-(4-methoxyphenyl)-7-oxo-6,7-dihydro-5H-spiro[pyrido[4,3-d]pyrimidine-8,3′-pyrrolidin]-1′-yl)cyclobutanecarboxylate] | 1 to 10
11 | COc1ccc(N2Cc3cnc(NCC(F)(F)F)nc3C3(CCC(O)CC3)C2=O)cc1 (centres unmarked) [Example 116, 4-hydroxy-6′-(4-methoxyphenyl)-2′-((2,2,2-trifluoroethyl)amino)-5′H-spiro[cyclohexane-1,8′-pyrido[4,3-d]pyrimidin]-7′(6′H)-one] | 1 to 10
12 | O=C1N(Cc2ccn[nH]2)Cc2cnc(NCC3CC3)nc2C12CCN(Cc1ccccc1F)C2 (centres unmarked) [Example 120, 6-((1H-pyrazol-5-yl)methyl)-2-((cyclopropylmethyl)amino)-1′-(2-fluorobenzyl)-5,6-dihydro-7H-spiro[pyrido[4,3-d]pyrimidine-8,3′-pyrrolidin]-7-one] | 1 to 10
13 | Cn1cc2cc(-n3cc4ccc(NCC(F)(F)F)nc4c(-c4ccc(CC(F)F)cc4)c3=O)ccc2n1 [Example 214, 8-(4-(2,2-difluoroethyl)phenyl)-6-(2-methyl-2H-indazol-5-yl)-2-((2,2,2-trifluoroethyl)amino)-1,6-naphthyridin-7(6H)-one] | < 0.1
14 | O=c1c(-c2ccc(Cl)cc2)c2nc(NCC(F)(F)F)ncc2cn1-c1ccc2nccn2c1 [Example 134, 8-(4-chlorophenyl)-6-(imidazo[1,2-a]pyridin-6-yl)-2-(2,2,2-trifluoroethylamino)pyrido[4,3-d]pyrimidin-7(6H)-one] | < 0.1
15 | O=c1c(-c2ccc(Cl)cc2)c2nc(NCC(F)(F)F)ncc2cn1-c1ccc2n[nH]cc2c1 [Example 142, 8-(4-chlorophenyl)-6-(2H-indazol-5-yl)-2-((2,2,2-trifluoroethyl)amino)pyrido[4,3-d]pyrimidin-7(6H)-one] | 0.1 to 1
16 | O=c1c(-c2ccc(OC(F)F)cc2)c2nc(OC3CC3)ncc2cn1-c1ccc2ncccc2c1 [Example 273, 2-cyclopropoxy-8-(4-(difluoromethoxy)phenyl)-6-(quinolin-6-yl)pyrido[4,3-d]pyrimidin-7(6H)-one] | < 0.1
17 | O=c1c(-c2ccc(OC(F)F)cc2)c2nc(OCC(F)(F)F)ncc2cn1-c1ccc2nc[nH]c2c1 [Example 266, 6-(H-benzo[d]imidazol-6-yl)-8-(4-(difluoromethoxy)phenyl)-2-(2,2,2-trifluoroethoxy)pyrido[4,3-d]pyrimidin-7(6H)-one] | 0.1 to 1
18 | O=c1c(-c2ccc(Cl)cc2)c2nc(NCC(F)(F)F)ncc2cn1-c1ccc2nnccc2c1 [Example 131, 8-(4-chlorophenyl)-6-(cinnolin-6-yl)-2-(2,2,2-trifluoroethylamino)pyrido[4,3-d]pyrimidin-7(6)-one] | < 0.1
19 | O=c1c(-c2ccc(Cl)cc2)c2nc(NCC(F)(F)F)ncc2cn1-c1ccc2nncn2c1 [Example 136, 6-([1,2,4]triazolo[4,3-a]pyridin-6-yl)-8-(4-chlorophenyl)-2-((2,2,2-trifluoroethyl)amino)pyrido[4,3-d]pyrimidin-7(6H)-one] | 0.1 to 1
20 | O=c1c(-c2ccc(OC(F)F)cc2)c2nc(NCC(F)(F)F)ncc2cn1-c1ccc2nn(C3CC3)cc2c1 [Example 154, 6-(2-cyclopropyl-2H-indazol-5-yl)-8-(4-(difluoromethoxy)phenyl)-2-((2,2,2-trifluoroethyl)amino)pyrido[4,3-d]pyrimidin-7(6H)-one] | < 0.1
21 | Cc1nc2cc(-n3cc4cnc(NCC(F)(F)F)nc4c(-c4ccc(OC(F)F)cc4)c3=O)ccc2o1 [Example 149, 8-(4-(difluoromethoxy)phenyl)-6-(2-methylbenzo[d]oxazol-5-yl)-2-((2,2,2-trifluoroethyl)amino)pyrido[4,3-d]pyrimidin-7(6H)-one] | < 0.1
22 | O=c1c(-c2ccc(C3CC3)cc2)c2nc(NCC(F)(F)F)ncc2cn1-c1ccc2nccn2c1 [Example 165, 8-(4-cyclopropylphenyl)-6-(imidazo[1,2-a]pyridin-6-yl)-2-((2,2,2-trifluoroethyl)amino)pyrido[4,3-d]pyrimidin-7(6)-one] | < 0.1
23 | COc1ccc(-n2cc3ccc(NCC(F)(F)F)nc3c(-c3ccc(Cl)cc3)c2=O)cc1 [Example 238, 8-(4-chlorophenyl)-6-(4-methoxyphenyl)-2-(2,2,2-trifluoroethylamino)-1,6-naphthyridin-7(6H)-one] | < 0.1
24 | COc1ccc(N2Cc3cnc(OCC4CC4)nc3C3(CCN(Cc4ccn[nH]4)C3)C2=O)cc1 (centres unmarked) [Example 114, 1′-((1H-pyrazol-3-yl)methyl)-2-(cyclopropylmethoxy)-6-(4-methoxyphenyl)-5H-spiro[pyrido[4,3-d]pyrimidine-8,3′-pyrrolidin]-7(6H)-one] | 0.1 to 1
25 | O=C1N(c2ccc3nc[nH]c3c2)Cc2cnc(NCC3CC3)nc2C12CCN(Cc1cc[nH]n1)C2 (centres unmarked) [Example 109, 1′-((H-pyrazol-3-yl)methyl)-6-(1H-benzo[d]imidazol-6-yl)-2-((cyclopropylmethyl)amino)-5H-spiro[pyrido[4,3-d]pyrimidine-8,3′-pyrrolidin]-7(6H)-one] | 0.1 to 1
26 | COc1ccc(N2Cc3cnc(NCC4CC4)nc3C3(CCN(Cc4cscn4)C3)C2=O)cc1 (centres unmarked) [Example 103, 2-((cyclopropylmethyl)amino)-6-(4-methoxyphenyl)-1′-(thiazol-4-ylmethyl)-5H-spiro[pyrido[4,3-d]pyrimidine-8,3′-pyrrolidin]-7(6H)-one] | 0.1 to 1
27 | COc1ccc(CN2Cc3cnc(NCC4CC4)nc3C3(CCN(Cc4ccccc4)C3)C2=O)cc1 (centres unmarked) [Example 118, 1′-benzyl-2-((cyclopropylmethyl)amino)-6-(4-methoxybenzyl)-5,6-dihydro-7H-spiro[pyrido[4,3-d]pyrimidine-8,3′-pyrrolidin]-7-one] | 1 to 10
28 | Cc1nc2cc(-n3cc4cnc(NCC(F)(F)F)nc4c(-c4ccc(Cl)cc4)c3=O)ccc2o1 [Example 138, 8-(4-chlorophenyl)-6-(2-methylbenzo[d]oxazol-5-yl)-2-((2,2,2-trifluoroethyl)amino)pyrido[4,3-d]pyrimidin-7(6H)-one] | 0.1 to 1
29 | COc1ccc(N2Cc3cnc(SCC4CC4)nc3C3(CCN(Cc4cc[nH]n4)C3)C2=O)cc1 (centres unmarked) [Example 115, 1′-((1H-pyrazol-3-yl)methyl)-2-((cyclopropylmethyl)thio)-6-(4-methoxyphenyl)-5H-spiro[pyrido[4,3-d]pyrimidine-8,3′-pyrrolidin]-7(6H)-one] | 0.1 to 1
